Experimental data published in US20110288036A1, “Methods for Treating or Preventing Vascular Graft Failure” (priority 2010, published 2011).

Columns and labels:
[1] = target: T1, MK2 (Homo sapiens, UniProt P49137); test: MK2 radiometric kinase assay; type: biochemical
T1 construct: purchased Millipore (IC50 Profiler Express / KinaseProfiler service)
Excerpt: (§1) A commercial radiometric assay service was used to test the specificity and potency of MMI-0100 ([…]; SEQ ID NO: 1) by measuring its half maximal inhibitory concentrations (IC50). This quantitative assay measures how much MK2 inhibitor (MMI-0100; […] (SEQ ID NO: 1)) is needed to inhibit 50% of a given biological process or component of a process (i.e., an enzyme, cell, or cell receptor). Specifically, in these assays, a positively charged substrate is phosphorylated with a radiolabeled phosphate group from an ATP if the kinase is not inhibited by an inhibitor peptide. The positively charged substrate then is attracted to a negatively charged filter membrane, quantified with a scintillation counter, and compared to a 100% activity control. ATP concentrations within 15 μM of the apparent Km for ATP were chosen since an ATP concentration near the Km may allow for the kinases to have the same relative amount of phosphorylation activity. […]
For the MK2 radiometric assay, 5-10 mU of MK2 was incubated with 50 mM Na b-glycerophosphate pH 7.5, 0.1 mM EGTA, 30 μM KKLNRTLSVA (SEQ ID NO: 34; a substrate peptide for MK2), 10 mM MgAcetate, and 10 μM of [y-^33P-ATP] in a final reaction volume of 25 μl. […] The washed P30 filtermat was dried and its radioactivity was measured by scintillation counter.
(§2) IC50 values for inhibitor peptides were determined using Millipore's IC50 Profiler Express service. […]

[2] = target: MKK3 (Homo sapiens, UniProt P46734); test: MKK3 kinase activity (data not shown); type: biochemical; settings: at concentration inhibiting greater than 95% of MK2 activity
Excerpt: as §1, §2
In order to determine the level of specificity for inhibiting MK2, the effect of MMI-0100 ([…]; SEQ ID NO: 1) on other kinases within the MAPK family and within the p38MAPK pathway was evaluated at concentrations of MMI-0100 ([…]; SEQ ID NO: 1) that inhibit greater than 95% of MK2 activity in vitro. […]

[3] = tested on: human saphenous vein (HSV); test: Human saphenous vein organ culture model of intimal hyperplasia; type: cell-based; settings: for average intimal thickness: control 81.6±17.3, pre-culture 43.7±7.8
Protocol: De-identified, discarded segments of human saphenous vein (HSV) were collected from consented patients undergoing coronary artery or peripheral vascular bypass surgeries. HSV segments were stored in a saline solution until the end of the surgical procedure, at which time they were placed in cold transplant harvest buffer (100 mM potassium lactobionate, 25 mM KH2PO4, 5 mM MgSO4, 30 mM Raffinose, 5 mM Adenosine, 3 mM Glutathione, 1 mM Allopurinol, 50 g/L Hydroxyethyl starch, pH 7.4). The vessels were used within 24 hours of harvest. Using sterile technique, HSV segments were transferred to a 60-mm Petri dish under a sterile hood. The edges (0.5 mm) of each segment were removed with a blade and excess adventitial tissue and fat removed with minimal manipulation. HSV segments were cut into consecutive rings of approximately 1.0 mm in width to be utilized for organ culture or muscle bath experiments. Two rings from each segment were immediately fixed in 10% formalin at 37° C. for 30 min to obtain pre-culture intimal thickening measurements.
After viability was determined in the muscle bath, additional rings were cut and placed in 8-well chamber slides and maintained in RPMI 1640 medium supplemented with 30% FBS, 1% L-glutamine and 1% penicillin/streptomycin for 14 days at 37° C. in an atmosphere of 5% CO2 in air. The rings were either untreated or treated with 10 μM, 50 μM or 100 μM of MMI-0100 peptide ([…] (SEQ ID NO: 1)). The culture medium with treatments was replaced every 2-3 days.
After 14 days of organ culture, vein segments were fixed in 0.5 mL of 10% formalin at 37° C. for 30 minutes and embedded in paraffin for sectioning. Beginning at the mid-portion of each ring, 5 transverse sections, spaced 5 μm apart, were cut for each specimen. Sections were then stained with Verhoeff-van Gieson stain. Each section was examined using light microscopy (Carl Zeiss, Thornwood, N.Y.) and 6 radially parallel measurements of intimal and medial thickness were randomly taken from each section ([…]). Intima was defined as tissue on the luminal side of the internal elastic lamina or the chaotic organization of the cells contained within it, whereas the medial layer was contained between the intimal layer and the external elastic lamina. Intimal and medial thickening was measured for each section at 5× magnification with the microscope's computerized image analysis system.
To this end, rings of human saphenous vein (HSV) were cultured in RPMI medium supplemented with L-glutamine (1%), penicillin/streptomycin (1%), and fetal bovine serum (FBS) (30%) at 5% CO2 and 37° C. for 14 days.
The effect of MMI-0100 ([…]; SEQ ID NO: 1) on development of intimal hyperplasia was further examined in a follow-up study in which intimal thickness of HSV in an organ culture model was measured in the presence of high serum and different concentrations (10-100 μM) of MMI-0100 ([…]; SEQ ID NO: 1). HSV were cultured for 14 days in 30% serum. All veins were deemed viable at the time of culture by adequate contraction with a phenylephrine challenge in a muscle bath. The average intimal thickness of pre-cultured vein segments was 43.7±7.8 μm. After culture, the average intimal thickness of the control was 81.6±17.3 μm. The average intimal thickness in the presence of 50 μM and 100 μM MMI-0100 ([…]; SEQ ID NO: 1) was 42.7±6.0 μm and 50.4±10.7 μm, respectively, with a significant reduction in intimal thickness (FIGS. 10A and 11).

T1 sequence (P49137 whole entry, species assumed): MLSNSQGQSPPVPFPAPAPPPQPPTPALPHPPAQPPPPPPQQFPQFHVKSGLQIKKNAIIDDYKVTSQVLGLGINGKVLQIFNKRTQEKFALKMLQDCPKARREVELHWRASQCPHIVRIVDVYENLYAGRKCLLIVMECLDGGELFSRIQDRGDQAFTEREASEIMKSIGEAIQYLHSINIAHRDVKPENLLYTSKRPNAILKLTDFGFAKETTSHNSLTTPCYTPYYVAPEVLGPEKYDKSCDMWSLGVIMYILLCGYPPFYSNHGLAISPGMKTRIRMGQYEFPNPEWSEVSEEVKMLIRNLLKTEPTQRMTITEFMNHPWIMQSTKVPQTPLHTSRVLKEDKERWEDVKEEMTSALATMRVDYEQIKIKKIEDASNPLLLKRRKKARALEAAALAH
Chain of MKK3 (P46734 whole entry, species assumed): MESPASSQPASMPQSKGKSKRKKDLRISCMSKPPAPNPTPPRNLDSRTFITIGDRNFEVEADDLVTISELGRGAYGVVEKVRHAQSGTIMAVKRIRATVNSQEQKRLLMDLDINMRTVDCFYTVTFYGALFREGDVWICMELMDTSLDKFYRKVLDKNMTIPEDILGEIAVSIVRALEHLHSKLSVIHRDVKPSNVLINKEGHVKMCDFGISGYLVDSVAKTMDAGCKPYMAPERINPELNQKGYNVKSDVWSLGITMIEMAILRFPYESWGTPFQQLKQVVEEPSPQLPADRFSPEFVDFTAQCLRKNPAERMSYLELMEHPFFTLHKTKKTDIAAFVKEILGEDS

YARAAARQARAKALARQLGVAA [MMI-0100] was tested, and the “inhibition of MK2 activity” value ([1]; concentration used for specificity profiling (Table 2)) was > 95%, the “Percent Activity, MK2” value ([1]; peptide 100 μM) was <5% and the MKK3 activity [2] was “no reduction”. For the same sequence, the “mean intimal thickness of HSV in culture” value ([3]; 5 μM or 10 μM, 14 days culture, in contrast to r-HSPB1) was “significantly reduced the mean intimal thickness”, the mean intimal thickness ([3]; 10 μM, 14 days culture) was 14 μm and the average intimal thickness ([3]; 50 μM, 14 days, 30% serum) was 42.7±6.0 μm. The “intima:media (I:M) ratio” value ([3]; 100 μM, 14 days, 30% serum) was “greater reduction of the I:M ratio” and the average intimal thickness ([3]; 100 μM, 14 days, 30% serum) was 50.4±10.7 μm.
